Data from patent US5773569A (Affymax Technologies N.V., priority 1995, dated 1998).
Like-named read-outs stand apart in the source and are kept apart here. Residues, ends and D or L forms follow the SMILES beside them.

Columns and labels:
Assay in all cases: cell-based
[1] = target: T1, FDCP-1/hEPO-R cells (human EPO-R) (Homo sapiens, UniProt P19235)
T1 sequence (P19235 25-508): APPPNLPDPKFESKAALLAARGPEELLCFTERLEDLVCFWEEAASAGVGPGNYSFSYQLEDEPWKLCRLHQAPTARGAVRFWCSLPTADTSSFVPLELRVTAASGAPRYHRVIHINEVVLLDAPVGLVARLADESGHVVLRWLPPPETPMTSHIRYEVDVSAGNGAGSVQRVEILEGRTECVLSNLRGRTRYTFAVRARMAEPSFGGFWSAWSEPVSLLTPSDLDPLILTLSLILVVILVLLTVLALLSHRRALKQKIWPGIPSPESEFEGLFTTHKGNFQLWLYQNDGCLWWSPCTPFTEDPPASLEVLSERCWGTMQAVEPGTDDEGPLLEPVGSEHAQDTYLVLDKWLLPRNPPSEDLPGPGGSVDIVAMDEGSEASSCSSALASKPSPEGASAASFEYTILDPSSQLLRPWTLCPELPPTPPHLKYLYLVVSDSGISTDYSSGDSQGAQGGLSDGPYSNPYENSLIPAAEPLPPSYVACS
Procedure: One assay utilized FDCP-1, a growth factor depenent murne multi-potential primitive hematopoietic progenitor cell line (see, e.g., Dexter et al. (1980) J. Exp. Med. 152:1036-1047), as the parental cell line. This cell line can proliferate, but not differentiate, when supplemented with WEHI3-conditioned media (a medium that contains IL-3, ATCC number T1B68).
In brief, the cells are grown to half stationary density in the presence of the necessary growth factors. The cells are then washed in PBS and starved for 16-24 hours in whole media without the growth factors. After determining the viability of the cells, stock solutions (in whole media without the growth factors) are made to give about 10^5 cells per 50 microliters. […] Cells (50 microliters) are added to each well and the cells are incubated 24-48 hours, at which point the negative controls should die or be quiescent. Cell proliferation is then measured by techniques known in the art, such as an MTT assay which correlates with ^3 H-thymidine incorporation as an indication of cell proliferation (see, Mosmann (1983) J. Immnunol. Methods 65:55).
In addition, this peptide was preincubated with streptavidin in serum-free HEPES-buffered RPMI at a 4:1 molar ratio, as above. The complex was tested for stimulation of cell proliferation in an FDCP-1/hEPO-R bioassay alongside. free […] […]

[2] = target: T2, murine receptor (FDC-P1/ER cells) (Mus musculus, UniProt P14753); details: IA = inactive
T2 sequence (P14753 25-507): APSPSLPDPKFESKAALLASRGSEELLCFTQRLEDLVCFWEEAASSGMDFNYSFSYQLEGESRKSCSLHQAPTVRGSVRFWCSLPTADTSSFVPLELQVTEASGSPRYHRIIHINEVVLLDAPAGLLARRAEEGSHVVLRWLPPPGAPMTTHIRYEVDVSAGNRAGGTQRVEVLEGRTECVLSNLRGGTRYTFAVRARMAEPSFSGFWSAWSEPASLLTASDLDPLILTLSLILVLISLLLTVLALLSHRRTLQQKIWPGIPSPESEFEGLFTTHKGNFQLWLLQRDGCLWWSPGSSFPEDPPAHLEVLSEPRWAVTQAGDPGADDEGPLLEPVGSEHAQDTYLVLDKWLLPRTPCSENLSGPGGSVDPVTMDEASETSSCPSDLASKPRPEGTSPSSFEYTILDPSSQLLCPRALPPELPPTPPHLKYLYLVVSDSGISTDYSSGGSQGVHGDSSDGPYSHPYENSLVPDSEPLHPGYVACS
Procedure: Sample Preparation: Peptides were resuspended in DMSO as a 1×10^-2 M stock solution and serially diluted in 10-fold increments to generate the following 100×solutions:
Two μl of each stock dilution was added to a cell well as described below in a total volume of 200 μl to generate final concentrations as follows:
(§1) Cells are harvested and resuspended in fresh medium without growth factor (erytiropoietin) for 24 hr. Cells are counted and resuspended at a concentration of 800,000 cells/ml. Approximately forty thousand cells (50μ) are added to each well of a 96 well microtiter plate. Peptide is added to each well in triplicate. A standard dose response determination is run with each series of peptides. After a forty-two hr incubation (≈2 doubling), each well is pulsed with 1 μCi/well Thymidine. Cells are incubated an additional six hr at which time cells are harvested and counted to assess thymidine incorporation as an indicator of cell proliferation.

[3] = target: T3, truncated human erythropoietin receptor cell line (Homo sapiens, UniProt P19235)
T3 sequence (P19235 25-468 limits assumed): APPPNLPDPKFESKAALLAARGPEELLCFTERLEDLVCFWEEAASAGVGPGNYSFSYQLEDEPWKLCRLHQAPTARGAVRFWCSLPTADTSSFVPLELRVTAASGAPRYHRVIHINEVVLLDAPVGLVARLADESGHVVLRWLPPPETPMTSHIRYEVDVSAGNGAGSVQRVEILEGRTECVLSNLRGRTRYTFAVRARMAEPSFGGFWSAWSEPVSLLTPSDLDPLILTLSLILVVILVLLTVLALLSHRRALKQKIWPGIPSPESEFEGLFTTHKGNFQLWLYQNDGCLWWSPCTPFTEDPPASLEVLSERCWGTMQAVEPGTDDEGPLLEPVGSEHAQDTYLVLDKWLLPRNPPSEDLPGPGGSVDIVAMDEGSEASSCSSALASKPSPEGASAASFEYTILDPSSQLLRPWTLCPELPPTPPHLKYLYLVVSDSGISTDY
Procedure: as §1

[4] = EPO-ED50 (μM), Tables 17-19, amount for half maximal level of EPO dependent proliferation

| Compound | EC50 [1] | EC50 ([1]; EPO-ED50, FIG. 10) | EC50 [2, 4] | EC50 [3] | EC50 ([2]; EPO-ED50 (μM)* murine receptor, Tables 20-21) |
| --- | --- | --- | --- | --- | --- |
| CC(C)C[C@@H]1NC(=O)[C@@H]2CCCN2C(=O)CNC(=O)[C@H](Cc2ccccc2)NC(=O)[C@H](Cc2c[nH]cn2)NC(=O)[C@@H](NC(=O)[C@H](CO)NC(=O)[C@H](Cc2ccc(O)cc2)NC(=O)[C@@H](NC(=O)CNC(=O)CN)[C@@H](C)O)CSSC[C@@H](C(=O)N[C@@H](CCCCN)C(=O)N2CCC[C@H]2C(=O)N[C@@H](CCC(N)=O)C(=O)NCC(=O)NCC(N)=O)NC(=O)[C@H](C(C)C)NC(=O)[C@H](Cc2c[nH]c3ccccc23)NC(=O)[C@H]([C@@H](C)O)NC1=O [RWJ 61233] (HELM PEPTIDE1{G.G.T.Y.S.C.H.F.G.P.L.T.W.V.C.K.P.Q.G.G.[am]}$PEPTIDE1,PEPTIDE1,6:R3-15:R3$$$V2.0) | 400 nM | ~1000 nM | 0.1 µM | 100 nM |  |
| CC(C)C[C@@H]1NC(=O)[C@@H]2CCCN2C(=O)CNC(=O)[C@H](Cc2ccccc2)NC(=O)[C@H](Cc2c[nH]cn2)NC(=O)[C@@H](NC(=O)[C@H](CO)NC(=O)[C@H](Cc2ccc(F)cc2)NC(=O)[C@@H](NC(=O)CNC(=O)CN)[C@@H](C)O)CSSC[C@@H](C(=O)N[C@@H](CCCCN)C(=O)N2CCC[C@H]2C(=O)N[C@@H](CCC(N)=O)C(=O)NCC(=O)NCC(N)=O)NC(=O)[C@H](C(C)C)NC(=O)[C@H](Cc2c[nH]c3ccccc23)NC(=O)[C@H]([C@@H](C)O)NC1=O [RWJ 62020, GGTXSCHFGPLTWVCKPQGG] (HELM PEPTIDE1{G.G.T.[O=C([C@H](Cc1ccc(F)cc1)N[*:1])[*:2]].S.C.H.F.G.P.L.T.W.V.C.K.P.Q.G.G.[am]}$PEPTIDE1,PEPTIDE1,6:R3-15:R3$$$V2.0) |  |  |  | 100 nM | 1 µM |
| CC(C)C[C@@H]1NC(=O)[C@@H]2CCCN2C(=O)CNC(=O)[C@H](Cc2ccccc2)NC(=O)[C@H](Cc2c[nH]cn2)NC(=O)[C@@H](NC(=O)[C@H](CO)NC(=O)[C@H](Cc2ccc(O)cc2)NC(=O)[C@@H](NC(=O)CNC(=O)CN)[C@@H](C)O)CSSC[C@@H](C(=O)N[C@@H](CCCCN)C(=O)N2CCC[C@H]2C(=O)N[C@@H](CCC(N)=O)C(=O)NCC(=O)NCC(N)=O)NC(=O)[C@H](C(C)C)NC(=O)[C@H](Cc2ccccc2)NC(=O)[C@H]([C@@H](C)O)NC1=O [RWJ 62145] (HELM PEPTIDE1{G.G.T.Y.S.C.H.F.G.P.L.T.F.V.C.K.P.Q.G.G.[am]}$PEPTIDE1,PEPTIDE1,6:R3-15:R3$$$V2.0) |  |  | 0.25 µM | 500 nM |  |
